These results are taken from article PMC11955804, “Histidine-rich enantiomeric peptide coacervates enhance antigen sequestration and presentation to T cells” (Chemical Science, 2025).

Data set [1] deals with BMDCs overlaid with DOBW cells. In words: In vitro antigen presentation assay, MHC class II (BMDCs + DOBW hybridoma, IL-2 ELISA). The conditions noted are these: BMDCs pre-treated 1 h: Chlorpromazine 30 µM, Dynasore 50 µM, Wortmannin 10 µM, Methyl β-CD 2 mM; OVA-loaded coacervates; DOBW overlay 16 h. For orientation: In an ELISA, binding on a coated surface is turned into a signal by an enzyme label.
Protocol: To test internalization mechanisms, we utilized in vitro antigen presentation assays (Fig. 4A). Here, bone marrow-derived dendritic cells (BMDCs) are treated with coacervates loaded with the model antigen ovalbumin (OVA). […] Secretion of IL-2 in response to peptide-MHC recognition is an indirect measure of coacervate uptake and can be quantified using ELISA (enzyme-linked immunosorbent assay) (Fig. 4A). […] We next used pharmacological inhibitors of endocytic mechanisms to explore mechanisms of cell entry (Fig. 4E). BMDCs were treated with inhibitors of clathrin-mediated endocytosis (chlorpromazine, CPZ),[58] dynamin-dependent endocytosis (dynasore, Dyn),[59] macropinocytosis (wortmannin, Wort),[60] cholesterol (methyl β-CD),[61] and IPA3 the regulatory domain of PAK1 (IPA-3)[62] for one h prior to antigen presentation assays.
Uptake of coacervates by BMDCs was measured using in vitro antigen presentation assays.
BMDCs were plated in 96-well round-bottom plates (1×10^5 cells/well) and maintained at 4°C or
treated with 10 mM deoxy glucose and 10 mM sodium azide in PBS (ATP depletion) for 1 h prior
to addition of OVA-loaded coacervates. Final OVA concentration was 1 g/mL for time-
dependent measurements and 10 g/mL for comparison between enantiomers. Cells maintained at
37°C and complete RPMI media served as controls. Soluble OVA and PBS treated cells were used as controls for antigen delivery. Following treatment (2 h, 4 h, 24 h, 48 h, or 72 h), BMDCs were
washed to remove extracellular coacervates and DOBW hybridoma cells (1:5, DC: DOBW) were
overlaid for 16 h. The cells were then centrifuged at 300 × g for 5 min, and the supernatant was
collected for IL-2 quantitation by ELISA according to the manufacturer protocol (Biotechne,
#DY402). The amount of IL-2 produced under each condition was measured.
Inhibition of coacervate uptake was measured by adding the inhibitors 1 h
prior to coacervate treatment for 24 h followed by hybridoma overlay and IL-2 measurements.

A further data set concerns DCs. Nature of the data set: DQ-OVA delivery to lysosomes (fluorescence microscopy). In kind it is cell-based, mouse. The conditions noted are these: DCs treated with DQ-OVA coacervates. The protocol: page 13: Flow cytometry The transfected A549 cells were washed with FACS wash buffer (FWB; 1× PBS with 10% […] Cells were washed again with FWB and then resuspended in 100 µl of PBS with eBioscience™ Fixable Viability Dye eFluor™ 506 antibody. The staining was quenched with FWB following a 20 min incubation. The cells were centrifuged, washed 2× times with FWB, and resuspended in 100 µl FWB with CD55 (DAF) Antibody (anti-human; miltenyibiotec Cat#130-126-382). After 20 min, staining was quenched, cells washed twice and resuspended in 200 µl FWB for acquisition. Single-stained cells stained with eFluor™ 506, CD55 (DAF) Antibody, were used as compensation controls. Samples were acquired using an Agilent NovoCyte 3000 flow cytometer. Data were analyzed with FlowJo version 10. […] was quantified as the percentage CD55+ cells, considering untreated cells as the negative control and Lipofectamine treated ones as the positive control. Antigen delivery to lysosomes and inhibitor effects DC 2.4 cells were cultured in RPMI-1640 (Catalog number: 11875093) medium supplemented with 10% FBS, 100 U/mL penicillin, 100 μg/mL streptomycin, and 1 mM sodium pyruvate. Cells were plated in 8-well chamber slides (5000 cells in 200 μL of media) and incubated for 24 h prior to addition of DQ-OVA loaded coacervates for 2 h, 6 h, or 24 h (final DQ-OVA concentration was 2.5 μg/mL). Cells treated with PBS or soluble OVA served as controls. Cells were then washed and fixed using 4% Paraformaldehyde (PFA) for 15 min at RT and permeabilized with 0.1% Triton X-100 for 5 min prior to nuclear staining with Hoechst stain (Catalog number: 62249, Thermo Fischer Scientific; 10 μg/mL). Cells were imaged (60×) on Lionheart FX automated microscope (BioTek Instruments, Inc.) with controlled exposure S13 page 14: parameters across two channels: eGFP and DAPI.

Data set [2] has as its system BMDCs overlaid with OVA1.3 hybridoma cells. In words: In vitro antigen presentation assay, MHC class I (BMDCs + OVA1.3 hybridoma, IL-2 ELISA). In kind it is cell-based, mouse. As to conditions: inhibitor 30 min before coacervates, Bortezomib 10 nM, Brefeldin A 17.8 µM, Lactacystin 50 µM. From the text:
parameters across two channels: eGFP and DAPI. Images were captured for each time point (2, 6, […]
deconvoluted using Gen 5 software overlaid to visualize localization. To test the effect of […]
T cell proliferation and functional cytokine production […]
at 1×10^8 cells/mL in EasySep Buffer.

Data set [3] is described as follows: Optical microscopy of coacervate formation (LLPS). The format is physicochemical. From the text:
NaCl) was used to study ionic strength effects. The absorbance was further converted to turbidity using methods previously described 1 and data was plotted as relative turbidity.
Optical microscopy and dynamic light scattering (DLS)
Droplets were visualized in 1×PBS using NCI Leica DMC4500 microscope in reflection mode with differential interference contrast. Images were captured with a DMC4500 camera under the control of Leica LAS X software (version 3.4.2). […]

A short description of data set [4]: Dynamic light scattering (DLS) droplet size. In kind it is physicochemical. As to conditions: 1 mM peptide, 1× PBS, pH 7.4; mean of 3 measurements with 14 scans each; identical for each pair of enantiomers. The protocol:
Optical microscopy and dynamic light scattering (DLS) […]
Coacervate size was measured using 1 mM
peptide solutions (1×PBS, pH 7.4) on a ZEN 3600 Zetasizer (Malvern Instruments, UK) using
DLS-Zen 0040 specialized cuvettes. The results were reported as the means of three
measurements, with 14 scans for each measurement. […]

Data set [5] can be described thus: Critical concentration (Ccrit) of coacervate formation. In kind it is physicochemical. As to conditions: 1× PBS, pH 7.4; enantiomeric variants identical. From the text:
(§1) Peptide synthesis and purification
(§2) The L- and D-enantiomers of (GHGLY)4, (GHGVY)4 and (GHGPY)4 peptides were purchased from GenScript and used without further modification. (GHGAY)4, (GHGFY)4, (GHGIY)4 and (GHGNY)4 were synthesized using standard Fmoc-SPPS chemistry on Rink Amide with Oxyma (Ethyl cyano(hydroxyimino) acetate) and N, N′-diisopropylcarbodiimide (DIC) as coupling agents on a Liberty Blue microwave-assisted synthesizer. Peptides were cleaved using a cocktail of trifluoroacetic acid (TFA), tri-isopropyl silane (TIS), and H2O (95:2.5:2.5) and extracted and washed in cold diethyl ether. The resulting pellet was dissolved in acetonitrile/water mixture (50:50) and frozen prior to lyophilization. Peptides were purified (~90%) using High Performance Liquid Chromatography (HPLC) on a Dionex Ultimate 3000 HPLC equipped with a diode-array detector on an Agilent Poroshell RP-C18 column (4.6 mm×150 mm), operating at a flow rate of 1 mL/min. Peaks corresponding to 220 nm were collected for MALDI -TOF mass analysis (Shimadzu MALDI-8030) using α-cyno-4-hydroxycinnamic acid matrix (Bruker Daltonics, MA).
Peptide solutions (0.25–1.5 mM) were prepared in 1×PBS at pH 7.4. Aliquots (140 µL) were pipetted into a 96-well plate and absorbance at 600 nm was measured over 24 h using a Synergy HT plate reader (Biotek, USA) at RT or 37°C with or without agitation. The pH dependence of LLPS formation was assessed in 0.1 M potassium phosphate buffer (with 150 mM NaCl) at different pH values (5.8, 6.6, 7.4, 8.0) and 1 mM peptide concentration. Similarly, 0.1 M potassium phosphate buffer (pH 7.4) with varying salt concent rations (0, 150, 250, 500, 1000 mM […]
Figure S10. Determination of Ccrit for (a) (GHGLY)4, (b) (GHGVY)4, (c) (GHGPY)4 and (d-f) their corresponding enantiomers (1 mM, 1× PBS, pH 7.4).
Table S1. Measured Ccrit values for (GHGXY)4 peptides used in this study.
(1 picture or pasted object on this page, not shown here)

A further data set in a line: Turbidity assay of LLPS. The format is physicochemical. As to conditions: 1× PBS pH 7.4, absorbance at 600 nm over 24 h, plate reader.
From the text: as §1
as §2, with “Peaks corresponding to 220 nm were collected for MALDI -TOF mass analysis (Shimadzu MALDI-8030) using α-cyno-4-hydroxycinnamic acid matrix (Bruker Daltonics, MA).” left out
Peptide solutions (0.25–1.5 mM) were prepared in 1×PBS at pH 7.4. Aliquots (140 µL) were pipetted into a 96-well plate and absorbance at 600 nm was measured over 24 h using a Synergy HT plate reader (Biotek, USA) at RT or 37°C with or without agitation. The pH dependence of LLPS formation was assessed in 0.1 M potassium phosphate buffer (with 150 mM NaCl) at different pH values (5.8, 6.6, 7.4, 8.0) and 1 mM peptide concentration. […]
NaCl) was used to study ionic strength effects. The absorbance was further converted to turbidity using methods previously described 1 and data was plotted as relative turbidity. […]
Droplets were visualized in 1×PBS using NCI Leica DMC4500 microscope in reflection mode with differential interference contrast. […] Coacervate size was measured using 1 mM peptide solutions (1×PBS, pH 7.4) on a ZEN 3600 Zetasizer (Malvern Instruments, UK) using DLS-Zen 0040 specialized cuvettes. […]
Viscosity of the peptide solutions (1 mM or 2 mM) was tested using an ARES 2000ex rotational rheometer (TA Instruments, New Castle, DE). […] Viscosity was measured as a function

A short description of data set [6]: Encapsulation efficiency measurement. The format is physicochemical. The conditions noted are these: 1 mM peptide, 1 µM eGFP in PBS; centrifuged 15,000 × g 10 min; fluorescence of supernatant (λex 395 nm, λem 510 nm). The protocol:
Encapsulation efficiency measurements […]
powders to a final peptide concentration of 1 mM. Cargo concentrations in the stock solutions […]
nm and λem: 519 nm). For small molecule dyes, similar methods were used. The encapsulation efficiency was determined as reported previously 12.
Cellular uptake and antigen presentation assays […]
to addition of OVA-loaded coacervates. Final OVA concentration was 1 µg/mL for time- […]
37°C and complete RPMI media served as controls. Soluble OVA and PBS treated cells were used as controls for antigen delivery.

With `CN(C)CCCN1c2ccccc2Sc2ccc(Cl)cc21` [CPZ, chlorpromazine], the “effect of endocytosis inhibitor on uptake of coacervates (IL-2)” value (“effect of endocytosis inhibitor” for short) in data set [1] is “did not significantly impact droplet uptake”.

On to `O=C(N/N=C/c1ccc(O)c(O)c1)c1cc2ccccc2cc1O` [Dyn, dynasore], for which the “effect of endocytosis inhibitor” value in data set [1] is reported as “did not significantly impact droplet uptake”.

Consider `Cl.N` [NH4Cl, reference compound], for which the “DQ-OVA fluorescence intensity in DCs in the presence of inhibitor” value in the data set with DCs is listed as “reduced”.

In the case of `CO/C1=C\C(C)=C\[C@@H](C)[C@@H](O)[C@@H](C)C/C(C)=C/C=C/[C@H](OC)[C@@H]([C@@H](C)[C@@H](O)[C@H](C)[C@@]2(O)C[C@@H](O)[C@H](C)[C@@H](C(C)C)O2)OC1=O` [bafilomycin, reference compound], the “DQ-OVA fluorescence intensity in DCs in the presence of inhibitor” value in the data set on DCs was “reduced”.

Regarding `CC(C)C[C@H](NC(=O)[C@H](Cc1ccccc1)NC(=O)c1cnccn1)B(O)O` [bortezomib], the “MHC class I presentation (IL-2 secretion) with MHC-I inhibitor” value in data set [2] is “significantly diminished”.

For the compound `C[C@H]1CCC/C=C/[C@@H]2C[C@H](O)C[C@H]2[C@H](O)/C=C/C(=O)O1` [brefeldin A], in data set [2], the “MHC class I presentation (IL-2 secretion) with MHC-I inhibitor” value was “significantly diminished”.

As for `CC(=O)N[C@@H](CSC(=O)[C@]1([C@@H](O)C(C)C)NC(=O)[C@H](C)[C@@H]1O)C(=O)O` [lactacystin], the “MHC class I presentation (IL-2 secretion) with MHC-I inhibitor” value in data set [2] is given as “significantly diminished”.

Turning to `COC[C@H]1OC(=O)c2coc3c2[C@@]1(C)C1=C(C3=O)[C@@H]2CCC(=O)[C@@]2(C)C[C@H]1OC(C)=O` [wortmannin], the “effect of endocytosis inhibitor” value in data set [1] is given as “most significant effect on uptake of coacervates”.

On to (GHGPY)4 [GP 20], for which the “coacervates at concentrations exceeding 250 mM NaCl” value in data set [3] (optical micrographs, 0.1 M potassium phosphate buffer pH 7.4, > 250 mM NaCl) is “no coacervates were detected”. The coacervate formation entry in data set [3] (optical microscopy, 1× PBS, across multiple synthesis batches) is “Consistent coacervate formation”. The “droplet size (DLS)” value in data set [4] is recorded as ~0.2 μm. Further, the “critical concentration (Ccrit) of coacervate formation” value in data set [5] worked out at 1 mM. Moreover, the “turbidity over time (A600)” value in the data set “Turbidity assay of LLPS” is “no turbidity changes were detected with time”. Moreover, the eGFP loading efficiency in data set [6] was ~30%.

In the case of methyl β-CD, the “effect of endocytosis inhibitor” value in data set [1] was “did not significantly impact droplet uptake”.
